{"source": "patent US11780832B2", "about": "“Lactivicin compounds, their preparation and use as antibacterial agents” (priority 2021, dated 2023)", "format_in_all_cases": "cell-based", "key": {"[1]": {"test_system": "Enterobacter cloacae species complex NDM-1", "assay": "MIC, CLSI broth microdilution", "how_it_was_run": "(§1)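 Broth microdilution following CLSI guidance was used to obtain MICs. Bacteria, recovered through two passages from skim-milk stocks held at −80 °C, were exposed to doubling dilutions of compound (final 16-0.0125 μg/mL).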"}, "[2]": {"test_system": "Klebsiella aerogenes VIM-1, SHV-12", "assay": "MIC, CLSI broth microdilution", "how_it_was_run": "as §1"}, "[3]": {"test_system": "Klebsiella pneumoniae SHV-12", "assay": "MIC, CLSI broth microdilution", "conditions": "SHV12, SHV-12, read-out: MIC", "how_it_was_run": "as §1"}, "[4]": {"test_system": "Klebsiella oxytoca KPC-2, TEM-1", "assay": "MIC, CLSI broth microdilution", "conditions": "KPC-2, TEM-1, read-out: MIC", "how_it_was_run": "as §1"}, "[5]": {"test_system": "Pseudomonas aeruginosa ATCC 27853", "assay": "MIC, CLSI broth microdilution", "conditions": "ATCC27853", "how_it_was_run": "as §1"}, "[6]": {"test_system": "Klebsiella pneumoniae OXA-163, OXA-1_OXA-30, SHV-1, TEM-1", "assay": "MIC, CLSI broth microdilution", "how_it_was_run": "(§2)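 Each strain carries identified resistance markers and was drawn from ATCC or clinical specimens. Susceptibility is tested per CLSI broth microdilution at a final inoculum of 5×10^5 CFU/mL, over a final compound range of 16-0.0125 μg/mL.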"}, "Escherichia coli CMY-2": {"test_system": "Escherichia coli CMY-2", "assay": "MIC, CLSI broth microdilution", "conditions": "CMY2", "how_it_was_run": "as §1"}, "[7]": {"test_system": "Escherichia coli ATCC 25922", "assay": "MIC, CLSI broth microdilution", "conditions": "ATCC25922", "how_it_was_run": "as §1"}, "[8]": {"test_system": "Pseudomonas aeruginosa AmpC overexpressed", "assay": "MIC, CLSI broth microdilution", "how_it_was_run": "as §2"}, "Escherichia coli SHV-12": {"test_system": "Escherichia coli SHV-12", "assay": "MIC, CLSI broth microdilution", "conditions": "SHV12", "how_it_was_run": "as §1"}, "[9]": {"test_system": "Klebsiella pneumoniae KPC-2", "assay": "MIC, CLSI broth microdilution", "conditions": "KPC2", "how_it_was_run": "as §1"}, "[10]": {"test_system": "Klebsiella pneumoniae OXA-48, SHV-1", "assay": "MIC, CLSI broth microdilution", "how_it_was_run": "as §2"}, "[11]": {"test_system": "Citrobacter freundii species complex OXA-181", "assay": "MIC, CLSI broth microdilution", "conditions": "Citrobacter freundii species complex, OXA-181; read-out: MIC", "how_it_was_run": "as §1"}, "[12]": {"test_system": "Klebsiella pneumoniae KPC-3", "assay": "MIC, CLSI broth microdilution", "conditions": "KPC3, KPC-3, read-out: MIC", "how_it_was_run": "as §1"}, "[13]": {"test_system": "Pseudomonas aeruginosa OprD negative", "assay": "MIC, CLSI broth microdilution", "how_it_was_run": "as §2"}, "[14]": {"test_system": "Klebsiella pneumoniae CMY-DHA", "assay": "Synergistic activity: MIC in the presence of Avibactam", "conditions": "row r32, in the presence of Avibactam @ 4 μg/mL", "how_it_was_run": "(§3)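 CLSI broth microdilution MIC with a β-lactamase inhibitor added at fixed concentration or fixed ratio before inoculation; final compound range 16-0.0125 μg/mL, inoculum 5×10^5 CFU/mL. Synergy taken as MIC reduction relative to compound tested without inhibitor.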"}, "[15]": {"test_system": "Escherichia coli Elevated AmpC", "assay": "Synergistic activity: MIC in the presence of Avibactam", "how_it_was_run": "as §3"}, "[16]": {"test_system": "Citrobacter freundii species complex Elevated AmpC", "assay": "Synergistic activity: MIC in the presence of Avibactam", "conditions": "row r16, in the presence of Avibactam @ 4 μg/mL", "how_it_was_run": "as §3"}, "[17]": {"test_system": "Enterobacter cloacae species complex Elevated AmpC", "assay": "Synergistic activity: MIC in the presence of Avibactam", "how_it_was_run": "as §3"}, "Escherichia coli CMY-DHA": {"test_system": "Escherichia coli CMY-DHA", "assay": "Synergistic activity: MIC in the presence of Avibactam", "how_it_was_run": "as §3"}, "[18]": {"test_system": "Proteus mirabilis CMY-DHA", "assay": "Synergistic activity: MIC in the presence of Avibactam", "conditions": "row r36, in the presence of Avibactam @ 4 μg/mL", "how_it_was_run": "as §3"}, "[19]": {"test_system": "Escherichia coli Elevated AmpC", "assay": "MIC against Elevated AmpC producing strains, compound alone", "how_it_was_run": "(§4)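 Isolates were subcultured twice from frozen stock, suspended in broth and added to 2-fold compound dilutions to reach 5×10^5 CFU/mL. Compound alone spanned a final 16-0.0125 μg/mL. Testing followed the CLSI broth microdilution method.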"}, "[20]": {"test_system": "Citrobacter freundii species complex Elevated AmpC", "assay": "MIC against Elevated AmpC producing strains, compound alone", "conditions": "row r16", "how_it_was_run": "as §4"}, "[21]": {"test_system": "Enterobacter cloacae species complex Elevated AmpC", "assay": "MIC against Elevated AmpC producing strains, compound alone", "how_it_was_run": "as §4"}}}
{"smiles": "Nc1nc(/C(=N/OC2(C(=O)O)CC2)C(=O)N[C@H]2CON(C3(C(=O)O)C[C@H](N4Cc5cc(O)c(O)cc5C4=O)C(=O)O3)C2=O)cs1", "note": "(stereo partly drawn) [Cmpd 28, (4S)-2-[(4S)-4-{[(2Z)-2-(2-amino-1,3-thiazol-4-yl)-2-{[(1-carboxycyclopropyl)oxy]imino}acetyl]amino}-3-oxo-1,2-oxazolidin-2-yl]-4-(5,6-dihydroxy-1-oxo-1,3-dihydro-2H-isoindol-2-yl)-5-oxooxolane-2-carboxylic acid]", "values": [{"measurement": "MIC", "setting": "[1]", "result": 2, "unit": "µg/mL"}, {"measurement": "MIC", "setting": "[2]", "result": 0.12, "unit": "µg/mL"}, {"measurement": "MIC", "setting": "[3]", "result": 0.06, "unit": "µg/mL"}, {"measurement": "MIC", "setting": "[4]", "result": 0.0149, "unit": "µg/mL"}, {"measurement": "MIC", "setting": "[5]", "result": 1, "unit": "µg/mL"}, {"measurement": "MIC", "setting": "[6]", "result": 0.25, "unit": "µg/mL"}, {"measurement": "MIC", "setting": "Escherichia coli CMY-2", "result": 8, "unit": "µg/mL"}, {"measurement": "MIC", "setting": "[7]", "result": 0.25, "unit": "µg/mL"}, {"measurement": "MIC", "setting": "[8]", "result": 2, "unit": "µg/mL"}, {"measurement": "MIC", "setting": "Escherichia coli SHV-12", "result": 0.5, "unit": "µg/mL"}, {"measurement": "MIC", "setting": "[9]", "result": 0.0149, "unit": "µg/mL"}, {"measurement": "MIC", "setting": "[10]", "result": 0.0149, "unit": "µg/mL"}, {"measurement": "MIC", "setting": "[11]", "result": 0.12, "unit": "µg/mL"}, {"measurement": "MIC", "setting": "[12]", "result": 0.25, "unit": "µg/mL"}, {"measurement": "MIC", "setting": "[13]", "result": 0.5, "unit": "µg/mL"}, {"measurement": "MIC", "setting": "[14]", "result": 0.12, "unit": "µg/mL"}, {"measurement": "MIC", "setting": "[15]; strain of row r10, in the presence of Avibactam @ 4 μg/mL", "result": 0.015, "unit": "µg/mL"}, {"measurement": "MIC", "setting": "[15]; strain of row r11, in the presence of Avibactam @ 4 μg/mL", "result": 0.06, "unit": "µg/mL"}, {"measurement": "MIC", "setting": "[15]; strain of row r12, in the presence of Avibactam @ 4 μg/mL", "result": 0.03, "unit": "µg/mL"}, {"measurement": "MIC", "setting": "[15]; strain of row r13, in the presence of Avibactam @ 4 μg/mL", "result": "<=0.008 μg/mL"}, {"measurement": "MIC", "setting": "[15]; strain of row r14, in the presence of Avibactam @ 4 μg/mL", "result": 0.06, "unit": "µg/mL"}, {"measurement": "MIC", "setting": "[15]; strain of row r15, in the presence of Avibactam @ 4 μg/mL", "result": 0.25, "unit": "µg/mL"}, {"measurement": "MIC", "setting": "[16]", "result": 0.12, "unit": "µg/mL"}, {"measurement": "MIC", "setting": "[17]; in the presence of Avibactam @ 4 μg/mL", "result": 0.25, "unit": "µg/mL"}, {"measurement": "MIC", "setting": "[17]; strain of row r7, in the presence of Avibactam @ 4 μg/mL", "result": 0.5, "unit": "µg/mL"}, {"measurement": "MIC", "setting": "[17]; strain of row r20, in the presence of Avibactam @ 4 μg/mL", "result": 0.015, "unit": "µg/mL"}, {"measurement": "MIC", "setting": "Escherichia coli CMY-DHA; strain of row r26, in the presence of Avibactam @ 4 μg/mL", "result": 0.12, "unit": "µg/mL"}, {"measurement": "MIC", "setting": "Escherichia coli CMY-DHA; strain of row r27, in the presence of Avibactam @ 4 μg/mL", "result": "<=0.008 μg/mL"}, {"measurement": "MIC", "setting": "Escherichia coli CMY-DHA; strain of row r28, in the presence of Avibactam @ 4 μg/mL", "result": 0.06, "unit": "µg/mL"}, {"measurement": "MIC", "setting": "Escherichia coli CMY-DHA; strain of row r29, in the presence of Avibactam @ 4 μg/mL", "result": 0.12, "unit": "µg/mL"}, {"measurement": "MIC", "setting": "Escherichia coli CMY-DHA; strain of row r30, in the presence of Avibactam @ 4 μg/mL", "result": "<=0.008 μg/mL"}, {"measurement": "MIC", "setting": "Escherichia coli CMY-DHA; strain of row r31, in the presence of Avibactam @ 4 μg/mL", "result": 0.12, "unit": "µg/mL"}, {"measurement": "MIC", "setting": "Escherichia coli CMY-DHA; strain of row r34, in the presence of Avibactam @ 4 μg/mL", "result": 0.015, "unit": "µg/mL"}, {"measurement": "MIC", "setting": "Escherichia coli CMY-DHA; strain of row r35, in the presence of Avibactam @ 4 μg/mL", "result": 0.03, "unit": "µg/mL"}, {"measurement": "MIC", "setting": "[18]", "result": 0.03, "unit": "µg/mL"}, {"measurement": "MIC", "setting": "[19]; strain of row r10", "result": 0.06, "unit": "µg/mL"}, {"measurement": "MIC", "setting": "[19]; strain of row r11", "result": 0.5, "unit": "µg/mL"}, {"measurement": "MIC", "setting": "[19]; strain of row r12", "result": 1, "unit": "µg/mL"}, {"measurement": "MIC", "setting": "[19]; strain of row r13", "result": 0.25, "unit": "µg/mL"}, {"measurement": "MIC", "setting": "[19]; strain of row r14", "result": 0.12, "unit": "µg/mL"}, {"measurement": "MIC", "setting": "[19]; strain of row r15", "result": 1, "unit": "µg/mL"}, {"measurement": "MIC", "setting": "[20]", "result": 1, "unit": "µg/mL"}, {"measurement": "MIC", "setting": "[21]", "result": 2, "unit": "µg/mL"}, {"measurement": "MIC", "setting": "[21]; strain of row r7", "result": 8, "unit": "µg/mL"}, {"measurement": "MIC", "setting": "[21]; strain of row r20", "result": 1, "unit": "µg/mL"}]}
